In US8063221B2, “Aminoquinolones as GSK-3 inhibitors” (Kyorin Pharmaceutical Co., Ltd., priority 2006, dated 2011):
≈ marks a conversion by molar mass, not a printed value. Read-outs that look alike come from different tables or passages of the source.

Experiments:
S. aureus Smith = assay: Antibacterial activity (MIC), S. aureus; type: cell-based; details: Staphylococcus aureus
Excerpt: (§1) As used herein, a minimum inhibitory concentration (MIC) for bacterial growth assay is the lowest level of a compound needed to cause an inhibition to bacterial growth in culture medium. In certain embodiments, the antibacterial activity of compounds herein, measured as MIC.
(§2) In certain embodiments, GSK3 inhibitors provided herein are substantially free of antibacterial activity or having very low antibacterial activity. The antibacterial activity can be measured by methods known in the art by estimating a minimum inhibitory concentration (MIC) for test compounds. A MIC is the lowest level of a compound needed to cause an inhibition to bacterial growth in a culture medium. […] (Clinical and Laboratory Standards Institute. Methods for Dilution Antimicrobial Susceptibility Tests for Bacteria That Grow Aerobically; Approved Standard-Sixth Edition: CLSI document […]. CLSI, Wayne, Pa. (2003))
(§3) Antibacterial activity for E. coli, ATCC8739 andS. aureus Smith expressed as MIC (μM) is provided as follows: […]

E. coli, ATCC8739 = assay: Antibacterial activity (MIC), E. coli; type: cell-based; details: Escherichia coli
Excerpt: as §1, §2, §3

[1] = target: T1, recombinant full-length human GSK3β (Homo sapiens, UniProt P49841); assay: Luciferase-coupled cell-free GSK3β kinase assay; type: biochemical
T1 construct: recombinant full-length human GSK3β (Upstate); purchased Upstate
Procedure, shortened: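 GSK3β, 10-25 ng, was incubated with compound for 1 h at 30° C in MOPS pH 7.0 buffer containing 62.5 μM phospho-glycogen synthase peptide-2 and 5 μM ATP. Remaining ATP was read by KinaseGlo luminescence, and IC50 was fitted from % inhibition relative to maximal inhibition.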

[2] = Table 1, read-out: Antibacterial MIC (μM) S. aureus Smith
[3] = ATCC8739, Table 1, E. coli ATCC8739, read-out: Antibacterial MIC (μM) E.Coli
[4] = read-out: Antibacterial MIC (μM) S. aureus Smith
[5] = ATCC8739, read-out: Antibacterial MIC (μM) E.Coli

T1 sequence (P49841 whole entry): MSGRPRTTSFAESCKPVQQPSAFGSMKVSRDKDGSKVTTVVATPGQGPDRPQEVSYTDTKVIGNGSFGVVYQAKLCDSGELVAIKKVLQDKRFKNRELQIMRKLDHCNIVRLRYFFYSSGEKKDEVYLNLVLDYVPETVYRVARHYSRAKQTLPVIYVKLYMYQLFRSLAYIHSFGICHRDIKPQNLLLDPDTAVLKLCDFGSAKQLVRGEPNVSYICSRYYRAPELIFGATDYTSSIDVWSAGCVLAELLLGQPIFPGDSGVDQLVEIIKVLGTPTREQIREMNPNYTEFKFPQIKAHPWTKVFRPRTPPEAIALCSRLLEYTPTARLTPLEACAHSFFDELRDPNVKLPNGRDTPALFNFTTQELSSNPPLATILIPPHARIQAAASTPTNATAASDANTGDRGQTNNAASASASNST

Structure (SMILES)	MIC (S. aureus Smith; [2]) [µM]	MIC (E. coli, ATCC8739; [3]) [µM]	IC50 ([1]; Table 1) [nM]	also measured
CC(C)[C@@H]1COc2c(NCCCn3cnc4ccccc43)c(F)c(N)c3c(=O)c(C(=O)O)cn1c23 [compound 65]				MIC (S. aureus Smith; Table 2, S. aureus Smith, read-out: Antimicrobial MIC [μM] S. aureus): 0.5 to 10 µM (≈ 0.24 to 4.8 µg/mL); MIC (E. coli, ATCC8739; ATCC8739, Table 2, E. coli ATCC8739, read-out: Antimicrobial MIC [μM] E. Coli): 0.5 to 10 µM (≈ 0.24 to 4.8 µg/mL); IC50 ([1]; Table 2): < 100 nM
Nc1c(F)c(NCCCc2ccccc2)c(F)c2c1c(=O)c(C(=O)O)cn2CCCn1ccnc1 [compound 65]	10 to 50 (≈ 4.82 to 24.1 µg/mL)	10 to 50 (≈ 4.82 to 24.1 µg/mL)	100 to 500	
Nc1cc(NCCNc2cccc3ccccc23)cc2c1c(=O)ccn2C1CC1 [compound 66]	10 to 50 (≈ 3.84 to 19.2 µg/mL)	10 to 50 (≈ 3.84 to 19.2 µg/mL)	< 100	
Nc1c(F)c(NCCCc2ccccc2)c(F)c2c1c(=O)ccn2C1CCCC1 [compound 72]	10 to 50 (≈ 3.97 to 19.9 µg/mL)	10 to 50 (≈ 3.97 to 19.9 µg/mL)	< 100	
Nc1c(F)c(NCCc2ccncc2)c(F)c2c1c(=O)ccn2C1CCCC1 [compound 73]	> 50	> 50	< 100	
Nc1c(F)c(NCCCn2ccnc2)c(F)c2c1c(=O)ccn2C1CCCC1 [compound 74]	> 50	> 50	< 100	
CC(C)OCCCNc1c(F)c(N)c2c(=O)ccn(C3CCCC3)c2c1F [compound 75]	> 50	> 50	100 to 500	
CC1(C)COc2c(NCCCn3ccnc3)c(F)c(N)c3c(=O)ccn1c23 [compound 79]				MIC (S. aureus Smith; read-out: Antimicrobial MIC [μM] S. aureus): > 50 µM; MIC (E. coli, ATCC8739; ATCC8739, read-out: Antimicrobial MIC [μM] E. Coli): > 50 µM; IC50 ([1]; Table 2): < 100 nM
COc1c(NCCCc2ccccc2)c(F)c(N)c2c(=O)c(C(=O)O)cn(C3CCCC3)c12 [compound 79]			100 to 500	MIC (S. aureus Smith; [4]): 10 to 50 µM (≈ 4.54 to 22.7 µg/mL); MIC (E. coli, ATCC8739; [5]): 10 to 50 µM (≈ 4.54 to 22.7 µg/mL)
COc1c(NCCCn2cnc3ccccc32)c(F)c(N)c2c(=O)c(C(=O)O)cn(C3CC3)c12 [compound 83]			< 100	MIC (S. aureus Smith; [4]): 0.5 to 10 µM (≈ 0.233 to 4.65 µg/mL); MIC (E. coli, ATCC8739; [5]): 10 to 50 µM (≈ 4.65 to 23.3 µg/mL)
COc1c(NCCc2cccnc2)c(F)c(N)c2c(=O)c(C(=O)O)cn(C3CC3)c12 [compound 85]			> 1000	MIC (S. aureus Smith; [4]): < 0.5 µM; MIC (E. coli, ATCC8739; [5]): 0.5 to 10 µM (≈ 0.206 to 4.12 µg/mL)

Continued, in another order:

MIC (S. aureus Smith; [2]) [µM]	MIC (E. coli, ATCC8739; [3]) [µM]	IC50 ([1]; Table 1) [nM]	Structure (SMILES)	also measured
0.5 to 10 (≈ 0.213 to 4.25 µg/mL)	10 to 50 (≈ 4.25 to 21.3 µg/mL)	< 100	COc1c(NCCCc2ccccc2)c(F)c(N)c2c(=O)c(C(=O)O)cn(C3CC3)c12 [compound 67]	
0.5 to 10 (≈ 0.206 to 4.12 µg/mL)	10 to 50 (≈ 4.12 to 20.6 µg/mL)	500 to 1000	COc1c(NCCc2ccncc2)c(F)c(N)c2c(=O)c(C(=O)O)cn(C3CC3)c12 [compound 68]	
0.5 to 10 (≈ 0.208 to 4.15 µg/mL)	10 to 50 (≈ 4.15 to 20.8 µg/mL)	< 100	COc1c(NCCCn2ccnc2)c(F)c(N)c2c(=O)c(C(=O)O)cn(C3CC3)c12 [compound 69]	
> 50	> 50	< 100	Nc1c(F)c(NCCNc2ccccn2)c(F)c2c1c(=O)ccn2C1CCCC1 [compound 76]	
0.5 to 10 (≈ 0.228 to 4.55 µg/mL)	10 to 50 (≈ 4.55 to 22.8 µg/mL)	> 1000	COc1c(NCCNc2ccccn2)c(F)c(N)c2c(=O)c(C(=O)O)cn(C3CCCC3)c12 [compound 77]	
> 50	> 50	500 to 1000	COc1c(NCCCn2ccnc2)c(F)c(N)c2c(=O)c(C(=O)O)cn(C3CCCC3)c12 [compound 78]	
10 to 50 (≈ 4.4 to 22 µg/mL)	> 50	> 1000	COc1c(NCCc2ccncc2)c(F)c(N)c2c(=O)c(C(=O)O)cn(C3CCCC3)c12 [compound 80]	
0.5 to 10 (≈ 0.206 to 4.11 µg/mL)	10 to 50 (≈ 4.11 to 20.6 µg/mL)	< 100	CC1COc2c(NCCCc3ccccc3)c(F)c(N)c3c(=O)c(C(=O)O)cn1c23 (stereo not drawn) [compound 81]	
10 to 50 (≈ 4.41 to 22.1 µg/mL)	10 to 50 (≈ 4.41 to 22.1 µg/mL)	> 1000	COc1c(NCCCOc2ccccc2)c(F)c(N)c2c(=O)c(C(=O)O)cn(C3CC3)c12 [compound 82]	
0.5 to 10 (≈ 0.213 to 4.26 µg/mL)	10 to 50 (≈ 4.26 to 21.3 µg/mL)	100 to 500	COc1c(NCCNc2ccccc2)c(F)c(N)c2c(=O)c(C(=O)O)cn(C3CC3)c12 [compound 84]	
0.5 to 10 (≈ 0.207 to 4.13 µg/mL)	0.5 to 10 (≈ 0.207 to 4.13 µg/mL)	< 100	CC1COc2c(NCCNc3ccccn3)c(F)c(N)c3c(=O)c(C(=O)O)cn1c23 (stereo not drawn) [compound 90]	
